The values that follow are results of earlier work, collected in patent publication US20150258085A1, “Treating Tumors of the Central Nervous System” (THE REGENTS OF THE UNIVERSITY OF CALIFORNIA, priority 2012, published 2015).

The test system of the data set is newly diagnosed glioblastoma. The conditions noted are these: systemic irinotecan plus TMZ versus TMZ alone.

Take `CCc1c2c(nc3ccc(OC(=O)N4CCC(N5CCCCC5)CC4)cc13)-c1cc3c(c(=O)n1C2)COC(=O)[C@]3(O)CC` [irinotecan]: the clinical outcome is “comparable to TMZ alone”; the toxicity / tolerability entry is “more toxic and poorly tolerated”.
